Where “and” joins values, the source holds several entries; their conditions need not be identical. Equal entries are not always repeated. Where two headings read alike, the source gives them in different places. Ends that are not written are not given here. A value given as a limit tells only on which side of the number the result lay.

Test [1] has as its target T1, human α-thrombin (Homo sapiens, UniProt P00734).
T1 construct: Bovine and human α-thrombins were supplied by Haematologic Technologies Inc (VT, USA); cleaved off efficiently by thrombin to generate the free N-terminus of the A-chain of human thrombin; purchased Haematologic Technologies Inc (VT, USA)
In words: Clotting assay: fibrinogen clotting by human thrombin, concentration doubling the clotting time (DCT) = IC50. In kind it is biochemical. The procedure: The clotting assays were carried out by use of the protocols described previously (DiMaio, J., Gibbs, B., Munn, D., Lefebvre, J., Ni, F., and Konishi, Y. (1990) J. Biol. Chem. 265, 21698-21703; and Witting, J. I., Bourdon, P., Brezniak, D. V., Maraganore, J. M., and Fenton, J. W. (1992) Biochem. J. 283 (Pt 3), 737-743) The assay employs bovine plasma fibrinogen dissolved at 0.1% in 50 mM Tris-Cl, 100 mM NaCl, 0.1% PEG-8000 at pH 7.6 (i.e. the clotting buffer). Each assay mixture contained a certain concentration of the peptide, and the reaction was started by the addition of human thrombin to a final concentration of 0.1 NIH unit/ml. Optical absorbance of the assay mixtures was measured at 420 nm and 37° C. using the Spectramax™ plate reader. The onset clotting time was determined as an intersection of the baseline and the initial slope of the O.D. change as a result of fibrin clot formation. The concentration of a peptide needed to double the clotting time (DCT) was defined as IC50. Peptide concentrations were determined by comparing the O.D.280 values of peptide stock solutions in the clotting buffer (vide supra) with the predicted extinction coefficient for each peptide (Gill, S. C. and von Hippel, P. H. (1989) Anal. Biochem. 182, 319-326).
The peptide concentration for doubling the clotting time (DCT) was defined as the IC50 value.

In test [2] the target is T1, human α-thrombin. In words: Inhibition of the amidolytic activity of thrombin (Tos-Gly-Pro-Arg-p-nitroanilide hydrolysis). Type of test: biochemical. The protocol: Kinetics of thrombin-catalyzed hydrolysis of the chromogenic substrate Tos-Gly-Pro-Arg-p-nitroanilide were followed by absorbance at 405 nm on a Spectramax plate reader thermostated at either 25° C. or 37° C. according to the method of Maragnore et al (supra). The concentrations of Tos-Gly-Pro-Arg-p-nitroanilide ranged from 2 to 400 μM. Initial rates were calculated under conditions of <15% hydrolysis of the total substrate. The KM and Vmax values were calculated accordingly and kcat values were determined by dividing Vmax by the enzyme (thrombin) concentration. The inhibition assays were performed in the clotting buffer with a certain fixed concentration of α-thrombin (˜0.3 nM) such that linear progress curves were achieved within at least 15 min in the absence of the inhibition. The total volume of the solution was fixed at 200 μl. Reactions were initiated by addition of the chromogenic substrate to the wells containing thrombin and a certain concentration of the peptide inhibitors premixed for less than 2 min. Alternatively, the substrate was first mixed with the peptide inhibitor and the total volume was adjusted to 120 μL using the clotting buffer. Eighty microliters of human α-thrombin in the clotting buffer (˜0.3 nM final concentration) was added to initiate the reaction. The concentration of the peptides ranged from 0.5 nM to 10 μM. Kinetics data from initial rate experiments were used to construct Lineweaver-Burke plot; i.e. the relationship of (substrate concentration)^−1 versus (initial velocity)^−1 which. were analysed by linear regression with MicroCal Origin 4.1 program (MicroCal, MD) or using the GraphPad Prism software. The Ki values of the inhibitors were determined using the equation: Ki=[I]/{(SL0/SL1)−1}, where
[I] is the inhibitor concentration,
SL0 is the slope of the reaction in the absence of inhibitors, and
SL1 is the slope of the reaction in the presence of the inhibitor.
Alternatively, Dixon plots of inverse velocity versus the inhibitor concentrations were generated with the Sigmaplot™ software. Every Dixon plot contained an array of data corresponding to different substrate concentrations and the Ki values were determined from the intersections. Following Peptide Cleavage by HPLC

[3] abbreviates: Amidolytic assay, 25° C. (Ki, nM), Tos-Gly-Pro-Arg-pNA, 25° C.

On to WDPRPQRHNDGDFEPIPEEYLQ [WD22-R-P^(d)], for which the midpoint of inhibition at human α-thrombin [1], the IC50, lay at 8.1 ± 1.1 nM. For the compound WDPRPQRHNDGDYEPIPEEYLQ [WD22-R-YP], the half-maximal inhibitory concentration (IC50) (as a rule, the concentration needed to halve the response being measured) against human α-thrombin [1] came out at 4.5 ± 2 nM. In addition, the Ki (in general, the dissociation constant of the complex between target and ligand, obtained from inhibition or displacement) on human α-thrombin [2] was found to be 358 ± 23 nM. Take `CC[C@H](C)[C@H](NC(=O)[C@H](CCC(=O)O)NC(=O)[C@H](CCC(=O)O)NC(=O)[C@H](Cc1ccccc1)NC(=O)[C@H](CC(=O)O)NC(=O)CNC(=O)[C@H](CC(=O)O)NC(=O)[C@H](CC(N)=O)NC(=O)[C@H](Cc1c[nH]cn1)NC(=O)[C@H](CC(=O)O)NC(=O)[C@H](CCC(N)=O)NC(=O)[C@@H]1CCCN1C(=O)[C@H](CCCNC(=N)N)NC(=O)[C@@H]1CCCN1C(=O)[C@H](CC(=O)O)NC(=O)[C@@H](N)Cc1ccccc1)C(=O)N1CCC[C@H]1C(=O)N[C@@H](CCC(=O)O)C(=O)N[C@@H](CCC(=O)O)C(=O)N[C@@H](Cc1ccc(O)cc1)C(=O)N[C@@H](CC(C)C)C(=O)N[C@@H](CCC(N)=O)C(=O)O` [FD22-D]: half-maximal inhibition against human α-thrombin [1] (IC50) required 53 ± 2 nM.

On to WDPRPQSRNDGDYEPIPEEYLQ [WD22-SR-YP], for which it took 32 ± 3 nM to reach half-maximal inhibition on human α-thrombin [1] (IC50).

In the case of `CC[C@H](C)[C@H](NC(=O)[C@H](CCC(=O)O)NC(=O)[C@H](CCC(=O)O)NC(=O)[C@H](Cc1ccccc1)NC(=O)[C@H](CC(=O)O)NC(=O)CNC(=O)[C@H](CC(=O)O)NC(=O)[C@H](CC(N)=O)NC(=O)[C@H](Cc1c[nH]cn1)NC(=O)[C@H](CC(=O)O)NC(=O)[C@H](CCC(N)=O)NC(=O)[C@@H]1CCCN1C(=O)[C@H](CCCNC(=N)N)NC(=O)[C@@H]1CCCN1C(=O)[C@H](CCC(=O)O)NC(=O)[C@@H](N)Cc1ccccc1)C(=O)N1CCC[C@H]1C(=O)N[C@@H](CCC(=O)O)C(=O)N[C@@H](CCC(=O)O)C(=O)N[C@@H](Cc1ccc(O)cc1)C(=O)N[C@@H](CC(C)C)C(=O)N[C@@H](CCC(N)=O)C(=O)O` [FE22-D], the IC50 on human α-thrombin [1] is over 125 nM. On to WDPRPQLHNDGDFEPIPEEYLQ [WD22-L-P], for which the IC50 against human α-thrombin [1] was ~26 nM and 26 nM. Moreover, the inhibition constant Ki on human α-thrombin [2] (setting [3]) came out at 39 ± 4 nM. As for FDPRPGGGGCNGDFEEIPEEYL [FD21-4GN], the IC50 at human α-thrombin [1] (peptide concentration doubling the clotting time (DCT), 37° C., '>' values: no delay in clotting time up to the concentration shown, read-out: Clotting assay, 37° C. (IC50)) was found to be 208 ± 8 nM. Also, the Ki at human α-thrombin [2] (read-out: Amidolytic assay, 25° C. (Ki), Tos-Gly-Pro-Arg-pNA, 25° C.) came out at 300 ± 20 nM. Regarding `CC[C@H](C)[C@H](NC(=O)[C@H](CCC(=O)O)NC(=O)[C@H](CCC(=O)O)NC(=O)[C@H](Cc1ccccc1)NC(=O)[C@H](CC(=O)O)NC(=O)CNC(=O)[C@H](CC(=O)O)NC(=O)[C@H](CC(N)=O)NC(=O)[C@H](Cc1c[nH]cn1)NC(=O)[C@H](CO)NC(=O)[C@H](CCC(N)=O)NC(=O)[C@@H]1CCCN1C(=O)[C@H](CCCNC(=N)N)NC(=O)[C@@H]1CCCN1C(=O)[C@H](Cc1c[nH]cn1)NC(=O)[C@@H](N)Cc1ccccc1)C(=O)N1CCC[C@H]1C(=O)N[C@@H](CCC(=O)O)C(=O)N[C@@H](CCC(=O)O)C(=O)N[C@@H](Cc1ccc(O)cc1)C(=O)N[C@@H](CC(C)C)C(=O)N[C@@H](CCC(N)=O)C(=O)O` [FH22], on human α-thrombin [1], the IC50 was over 150 nM. For WDPRPQRHNDGDYEPIPEEYLQ [WD22-R-YP^(d)], at human α-thrombin [1], the IC50 is 4.8 ± 0.8 nM. In turn, `CC[C@H](C)[C@H](N)C(=O)N[C@@H](CCC(N)=O)C(=O)N1CCC[C@H]1C(=O)N[C@@H](CCCNC(=N)N)C(=O)N1CCC[C@H]1C(=O)N[C@@H](CCC(N)=O)C(=O)N[C@H](C(=O)N[C@@H](Cc1c[nH]cn1)C(=O)N[C@@H](CC(N)=O)C(=O)N[C@@H](CC(=O)O)C(=O)NCC(=O)N[C@@H](CC(=O)O)C(=O)N[C@@H](Cc1ccccc1)C(=O)N[C@@H](CCC(=O)O)C(=O)N[C@@H](CCC(=O)O)C(=O)N[C@H](C(=O)N1CCC[C@H]1C(=O)N[C@@H](CCC(=O)O)C(=O)N[C@@H](CCC(=O)O)C(=O)N[C@@H](Cc1ccc(O)cc1)C(=O)N[C@@H](CC(C)C)C(=O)N[C@@H](CCC(N)=O)C(=O)O)[C@@H](C)CC)[C@@H](C)CC` [IQ22-I] registered an IC50 at human α-thrombin [1] of 39 ± 3 nM.

On human α-thrombin [1], `CC[C@H](C)[C@H](NC(=O)[C@H](CCC(=O)O)NC(=O)[C@H](CCC(=O)O)NC(=O)[C@H](Cc1ccccc1)NC(=O)[C@H](CC(=O)O)NC(=O)CNC(=O)[C@H](CC(=O)O)NC(=O)[C@H](CC(N)=O)NC(=O)[C@H](Cc1c[nH]cn1)NC(=O)[C@H](CO)NC(=O)[C@H](CCC(N)=O)NC(=O)[C@@H]1CCCN1C(=O)[C@H](CCCNC(=N)N)NC(=O)[C@@H]1CCCN1C(=O)[C@H](CCC(=O)O)NC(=O)[C@@H](N)Cc1ccccc1)C(=O)N1CCC[C@H]1C(=O)N[C@@H](CCC(=O)O)C(=O)N[C@@H](CCC(=O)O)C(=O)N[C@@H](Cc1ccc(O)cc1)C(=O)N[C@@H](CC(C)C)C(=O)N[C@@H](CCC(N)=O)C(=O)O` [FE22] came in with an IC50 of 80 nM. In turn, WDPRPQSRNDGDFEPIPEEYLQ [WD22-SR-P] returned a 50% inhibitory concentration (IC50) at human α-thrombin [1] of 53 ± 2 nM. As for `CC[C@H](C)[C@H](NC(=O)[C@H](CCC(=O)O)NC(=O)[C@H](CCC(=O)O)NC(=O)[C@H](Cc1ccccc1)NC(=O)[C@H](CC(=O)O)NC(=O)CNC(=O)[C@H](CC(=O)O)NC(=O)[C@H](CC(N)=O)NC(=O)[C@H](Cc1c[nH]cn1)NC(=O)[C@H](CCCNC(=N)N)NC(=O)[C@H](CCC(N)=O)NC(=O)[C@@H]1CCCN1C(=O)[C@H](CCCNC(=N)N)NC(=O)[C@@H]1CCCN1C(=O)[C@H](CC(=O)O)NC(=O)[C@@H](N)Cc1ccccc1)C(=O)N1CCC[C@H]1C(=O)N[C@@H](CCC(=O)O)C(=O)N[C@@H](CCC(=O)O)C(=O)N[C@@H](Cc1ccc(O)cc1)C(=O)N[C@@H](CC(C)C)C(=O)N[C@@H](CCC(N)=O)C(=O)O` [FD22-R], the 50% inhibitory concentration (IC50) against human α-thrombin [1] is ~32 nM and 32 nM. Besides, on human α-thrombin [2] (setting [3]), the Ki amounted to 45 ± 6 nM. As to FNPRP [FN, FNPRP], the IC50 at human α-thrombin [1] was over 100000 nM. Further, the “IC50 values (in words)” value on human α-thrombin [1] (clotting assay, FNPRP peptide alone) is “submillimolar”. Further, the Ki on human α-thrombin [2] (setting [3]) was over 2000 nM. With `CC[C@H](C)[C@H](NC(=O)[C@H](CCC(N)=O)NC(=O)[C@@H]1CCCN1C(=O)[C@H](CCCNC(=N)N)NC(=O)[C@@H]1CCCN1C(=O)[C@H](CC(N)=O)NC(=O)[C@@H](N)Cc1ccccc1)C(=O)N[C@@H](Cc1c[nH]cn1)C(=O)N[C@@H](CC(N)=O)C(=O)N[C@@H](CC(=O)O)C(=O)NCC(=O)N[C@@H](CC(=O)O)C(=O)N[C@@H](Cc1ccccc1)C(=O)N[C@@H](CCC(=O)O)C(=O)N[C@@H](CCC(=O)O)C(=O)N[C@H](C(=O)N1CCC[C@H]1C(=O)N[C@@H](CCC(=O)O)C(=O)N[C@@H](CCC(=O)O)C(=O)N[C@@H](Cc1ccc(O)cc1)C(=O)N[C@@H](CC(C)C)C(=O)N[C@@H](CCC(N)=O)C(=O)O)[C@@H](C)CC` [FN22-I], the IC50 against human α-thrombin [1] turned out to be 45 nM. Moreover, the Ki on human α-thrombin [2] (setting [3]) is 360 nM. Compound `CC[C@H](C)[C@H](NC(=O)[C@H](CCC(=O)O)NC(=O)[C@H](CCC(=O)O)NC(=O)[C@H](Cc1ccccc1)NC(=O)[C@H](CC(=O)O)NC(=O)CNC(=O)[C@H](CC(=O)O)NC(=O)[C@H](CC(N)=O)NC(=O)[C@H](Cc1c[nH]cn1)NC(=O)[C@H](CCSC)NC(=O)[C@H](CCC(N)=O)NC(=O)[C@@H]1CCCN1C(=O)[C@H](CCCNC(=N)N)NC(=O)[C@@H]1CCCN1C(=O)[C@H](CCC(N)=O)NC(=O)[C@@H](N)Cc1ccccc1)C(=O)N1CCC[C@H]1C(=O)N[C@@H](CCC(=O)O)C(=O)N[C@@H](CCC(=O)O)C(=O)N[C@@H](Cc1ccc(O)cc1)C(=O)N[C@@H](CC(C)C)C(=O)N[C@@H](CCC(N)=O)C(=O)O` [FQ22-M] registered a concentration for half-maximal inhibition (IC50) against human α-thrombin [1] of at least 10 nM.
